Assay results taken from paper PMC10385824, “Antiproliferative and Tubulin-Destabilising Effects of 3-(Prop-1-en-2-yl)azetidin-2-Ones and Related Compounds in MCF-7 and MDA-MB-231 Breast Cancer Cells” (Pharmaceuticals, 2023).
Like-named read-outs stand apart in the source and are kept apart here.

Tests used:
[1] = test system: purified bovine brain tubulin; experiment: Tubulin polymerization assay (light scattering, BK006 kit); assay type: biochemical; conditions: compound at 10 μM; relative to vehicle
Method in brief: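 Compounds tested at 10 µM against vehicle (1% DMSO or EtOH) with bovine brain tubulin, 3 mg/mL, in pH 6.9 PIPES buffer containing 1 mM GTP and 10% glycerol, 37 °C. Light scattering at 340 nm tracked microtubule formation; average of two independent runs reported.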

CCRF-CEM = experiment: NCI-60 SRB screen, leukemia; assay type: cell-based; conditions: Homo sapiens, five dose 0.01–100 µM, 48 h, read-out: GI50
HL-60(TB) = experiment: NCI-60 SRB screen, leukemia; assay type: cell-based, human; conditions: for GI50: Homo sapiens
K-562 = experiment: NCI-60 SRB screen, leukemia; assay type: cell-based, human
MOLT-4 = experiment: NCI-60 SRB screen, leukemia; assay type: cell-based, human; conditions: MOLT-4, 48 h
RPMI-8226 = experiment: NCI-60 SRB screen, leukemia; assay type: cell-based, human; conditions: RPMI-8226, 48 h
SR = experiment: NCI-60 SRB screen, leukemia; assay type: cell-based, human; conditions: 48 h
NCI-H332M = experiment: NCI-60 SRB screen, non-small cell lung cancer; assay type: cell-based; conditions: Homo sapiens, […], five dose 0.01–100 µM, 48 h, read-out: GI50
NCI-H460 = experiment: NCI-60 SRB screen, non-small cell lung cancer; assay type: cell-based, human; conditions: NCI-H460, 48 h
NCI-H552 = experiment: NCI-60 SRB screen, non-small cell lung cancer; assay type: cell-based, human; conditions: 48 h
SF295 = experiment: NCI-60 SRB screen, CNS cancer; assay type: cell-based, human; conditions: SF-295, 48 h
SF539 = experiment: NCI-60 SRB screen, CNS cancer; assay type: cell-based, human; conditions: SF-539; one dose 10 µM, 48 h
SNB-19 = experiment: NCI-60 SRB screen, CNS cancer; assay type: cell-based, human; conditions: SNB-19, 48 h
U251 = experiment: NCI-60 SRB screen, CNS cancer; assay type: cell-based, human; conditions: U251, 48 h
DU-145 = experiment: NCI-60 SRB screen, prostate cancer; assay type: cell-based, human; conditions: DU-145, 48 h
MALME-3M = experiment: NCI-60 SRB screen, melanoma; assay type: cell-based, human; conditions: MALME-3M, 48 h
MDA-MB-435 = experiment: NCI-60 SRB screen, melanoma; assay type: cell-based, human; conditions: MDA-MB-435, 48 h
SK-MEL-28 = experiment: NCI-60 SRB screen, melanoma; assay type: cell-based, human; conditions: SK-MEL-28, 48 h
OVCAR-5 = experiment: NCI-60 SRB screen, ovarian cancer; assay type: cell-based, human; conditions: OVCAR-5, 48 h
NCI/ADR-RES = experiment: NCI-60 SRB screen, ovarian cancer; assay type: cell-based, human; conditions: 48 h
SK-OV-3 = experiment: NCI-60 SRB screen, ovarian cancer; assay type: cell-based, human; conditions: SK-OV-3, 48 h
SN12C = experiment: NCI-60 SRB screen, renal cancer; assay type: cell-based, human; conditions: 48 h
TK-10 = experiment: NCI-60 SRB screen, renal cancer; assay type: cell-based, human; conditions: TK-10, 48 h
MDA-MB-231/ATCC = experiment: NCI-60 SRB screen, breast cancer; assay type: cell-based, human; conditions: 48 h
HS 578T = experiment: NCI-60 SRB screen, breast cancer; assay type: cell-based; conditions: Homo sapiens; HS 578T; five dose 0.01–100 µM, 48 h; read-out: GI50
T-47D = experiment: NCI-60 SRB screen, breast cancer; assay type: cell-based, human; conditions: T-47D, 48 h
[2] = test system: NCI 60 human cancer cell line panel; experiment: NCI 60 cell line screen (SRB), panel values
[3] = Homo sapiens, five dose 0.01–100 µM, read-out: GI50

For `C=C(C)C1C(=O)N(c2cc(OC)c(OC)c(OC)c2)C1c1ccc(OC)c(O)c1` (centres unmarked) [9q, 4-(3-Hydroxy-4-methoxyphenyl)-1-(3,4,5-trimethoxyphenyl)-3-(prop-1-en-2-yl)azetidin-2-one], the “Fold Reduction in Vmax” value [1] was 4.27, the GI50 (CCRF-CEM) was 19.2 nM and the “% Growth” value (HL-60(TB); HL-60(TB), one dose 10 µM, 48 h) was -51.24%. For the same compound, the GI50 (HL-60(TB); HL-60(TB), five dose 0.01–100 µM, 48 h) was 21.1 nM, the GI50 (HL-60(TB); HL-60, NCI screen) was less than 34 nM and the GI50 (K-562; Homo sapiens, K562, 48 h, read-out: GI50) was 35.2 nM. The “% Growth” value (K-562; K-562, one dose 10 µM, 48 h) was 2.20%, the GI50 (MOLT-4; [3]) was 20.2 nM and the “% Growth” value (MOLT-4; one dose 10 µM) was -15.34%. For the same compound, the GI50 (RPMI-8226; [3]) was 11.1 nM, the “% Growth” value (RPMI-8226; one dose 10 µM) was 11.06% and the GI50 (SR; [3]) was less than 10 nM. For the same compound, the “% Growth” value (SR; one dose 10 µM) was -2.84%, the GI50 (NCI-H332M) was 47.7 nM and the GI50 (NCI-H460; [3]) was 30 nM. For the same compound, the “% Growth” value (NCI-H460; one dose 10 µM) was 3.52%, the GI50 (NCI-H552; Homo sapiens, NCI-H552, five dose 0.01–100 µM, read-out: GI50) was less than 10 nM and the “% Growth” value (NCI-H552; NCI-H522, one dose 10 µM) was -43.45%. The GI50 (SF295; Homo sapiens, SF295, five dose 0.01–100 µM, read-out: GI50) was less than 10 nM, the “% Growth” value (SF295; one dose 10 µM) was 20.26% and the “% Growth” value (SF539) was -8.30%. For the same compound, the GI50 (SNB-19; [3]) was 58.8 nM, the “% Growth” value (SNB-19; one dose 10 µM) was 37.93% and the GI50 (U251; Homo sapiens, U-251, five dose 0.01–100 µM, read-out: GI50) was 30.5 nM. For the same compound, the “% Growth” value (U251; one dose 10 µM) was 9.06%, the “% Growth” value (DU-145; one dose 10 µM) was -52.00% and the GI50 (DU-145; [3]) was 21.5 nM. For the same compound, the GI50 (MALME-3M; [3]) was 20500 nM, the “% Growth” value (MALME-3M; one dose 10 µM) was 63.23% and the GI50 (MDA-MB-435; [3]) was less than 10 nM. For the same compound, the “% Growth” value (MDA-MB-435; one dose 10 µM) was -13.45%, the GI50 (SK-MEL-28; [3]) was 64300 nM and the “% Growth” value (SK-MEL-28; one dose 10 µM) was 65.72%. For the same compound, the GI50 (OVCAR-5; [3]) was 49.4 nM, the “% Growth” value (OVCAR-5; one dose 10 µM) was 44.67% and the GI50 (NCI/ADR-RES; [3]) was less than 10 nM. For the same compound, the “% Growth” value (NCI/ADR-RES; one dose 10 µM) was -2.95%, the GI50 (SK-OV-3; [3]) was 30.4 nM and the “% Growth” value (SK-OV-3; one dose 10 µM) was 8.15%. For the same compound, the GI50 (SN12C; [3]) was 37 nM, the “% Growth” value (SN12C; one dose 10 µM) was 31.39% and the GI50 (TK-10; [3]) was 53.4 nM. For the same compound, the “% Growth” value (TK-10; one dose 10 µM) was 46.63%, the GI50 (MDA-MB-231/ATCC; Homo sapiens, MDA-MB-231/ATCC, five dose 0.01–100 µM, read-out: GI50) was 16.8 nM and the IC50 (MDA-MB-231/ATCC; Homo sapiens, MDA-MB-231, obtained from NCI, five concentrations 0.01–100 μM, read-out: Antiproliferative Activity IC50) was 23.9 nM. The “% Growth” value (MDA-MB-231/ATCC; MDA-MB-231/ATCC, one dose 10 µM) was -6.67%, the GI50 (HS 578T) was 10.6 nM and the GI50 (T-47D; Homo sapiens, T47D, five dose 0.01–100 µM, read-out: GI50) was greater than 100000 nM. The “% Growth” value (T-47D; one dose 10 µM) was 67.35%, the CC50 ([2]; Homo sapiens, 60 cell, 9 h, read-out: LC50) was greater than 100000 nM and the GI50 ([2]; Homo sapiens, 60 cell, breast cancer cell lines MCF-7, MDA-MB-231, HS 578T, BT-549, MDA-MB-468) was 10 to 16 nM. The GI50 ([2]; Homo sapiens, 60 cell, in 48 of the panel cell lines tested) was less than 50 nM, the CC50 ([2]; Homo sapiens, 60 cell, read-out: Mean LC50) was 81300 nM and the IC (TGI (total growth inhibition)) ([2]; Homo sapiens, 60 cell, read-out: Mean TGI) was 32400 nM. For the same compound, the GI50 in words ([2]; all cell lines investigated except T-47D) was “sub-micromolar”, the TGI ([2]; for 34 of the cell lines tested) was greater than 100000 nM and the “% Growth, Delta” value ([2]; one dose 10 µM, 48 h) was 65.02%. The “% Growth, Range” value ([2]; one dose 10 µM, 48 h) was 126.47% and the “% Growth, Mean” value ([2]; one dose 10 µM, 48 h, all cell lines) was 13.02%.
